# In PubChem BioAssay AID1963975 (Molecular Pharmacology Branch, DTP, NCI, 2024):
# Tested on: 624824-186-R-J2-PDC multicell spheroids, viability
# Test: Anticancer human tumor 624824-186-R-J2-PDC patient-derived colon adenocarcinoma cell line growth inhibition [PI3K]
# Conditions: for IC50: curve of first compound; for viability, T/C: stronger effect = lower value
# Procedure, shortened: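 Spheroid viability read-out. Co-cultures contained the tumor line plus HUVEC and human MSCs. Each agent was paired with a PI3K inhibitor (inavolisib, alpelisib, duvelisib, copanlisib) across half-log dilutions starting at clinical Cmax, or at 10 microM when Cmax was unknown.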
# 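Note: spheroids exposed to agents for 7 days before viability read.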
# 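Throughout, for viability, T/C: 100% = DMSO vehicle treated spheroids.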
structure (smiles),measurement,setting,value
CC(Cn1ccc(-c2ccc(C#N)c(Cl)c2)n1)NC(=O)c1cc(C(C)O)[nH]n1 (configuration not stated) + COc1c(OCCCN2CCOCC2)ccc2c3n(c(=NC(=O)c4cnc(N)nc4)nc12)CCN3,IC50,second compound 0.00316 µM,> 10 µM
same,IC50,second compound 0.01 µM,> 10 µM
same,IC50,second compound 0.0316 µM,> 10 µM
same,IC50,second compound 0.1 µM,> 10 µM
same,IC50,second compound 0.316 µM,> 10 µM
same,IC50,second compound 1 µM,> 10 µM
same,"viability, T/C","second compound 0.00316 µM, first compound 0.0316 µM",86.3%
same,"viability, T/C","second compound 0.00316 µM, first compound 0.1 µM",79%
same,"viability, T/C","second compound 0.00316 µM, first compound 0.316 µM",106%
same,"viability, T/C","second compound 0.00316 µM, first compound 1 µM",98.5%
same,"viability, T/C","second compound 0.00316 µM, first compound 3.16 µM",71.5%
same,"viability, T/C","second compound 0.00316 µM, first compound 10 µM",117%
same,"viability, T/C","second compound 0.01 µM, first compound 0.0316 µM",87.1%
same,"viability, T/C","second compound 0.01 µM, first compound 0.1 µM",89.7%
same,"viability, T/C","second compound 0.01 µM, first compound 0.316 µM",98%
same,"viability, T/C","second compound 0.01 µM, first compound 1 µM",84.8%
same,"viability, T/C","second compound 0.01 µM, first compound 3.16 µM",99.6%
same,"viability, T/C","second compound 0.01 µM, first compound 10 µM",114%
same,"viability, T/C","second compound 0.0316 µM, first compound 0.0316 µM",102%
same,"viability, T/C","second compound 0.0316 µM, first compound 0.1 µM",88.1%
same,"viability, T/C","second compound 0.0316 µM, first compound 0.316 µM",90.7%
same,"viability, T/C","second compound 0.0316 µM, first compound 1 µM",84.5%
same,"viability, T/C","second compound 0.0316 µM, first compound 3.16 µM",92%
same,"viability, T/C","second compound 0.0316 µM, first compound 10 µM",97.2%
same,"viability, T/C","second compound 0.1 µM, first compound 0.0316 µM",76.9%
same,"viability, T/C","second compound 0.1 µM, first compound 0.1 µM",73.2%
same,"viability, T/C","second compound 0.1 µM, first compound 0.316 µM",71.6%
same,"viability, T/C","second compound 0.1 µM, first compound 1 µM",76.6%
same,"viability, T/C","second compound 0.1 µM, first compound 3.16 µM",85.1%
same,"viability, T/C","second compound 0.1 µM, first compound 10 µM",80%
same,"viability, T/C","second compound 0.316 µM, first compound 0.0316 µM",61.4%
same,"viability, T/C","second compound 0.316 µM, first compound 0.1 µM",70.2%
same,"viability, T/C","second compound 0.316 µM, first compound 0.316 µM",55.3%
same,"viability, T/C","second compound 0.316 µM, first compound 1 µM",62.2%
same,"viability, T/C","second compound 0.316 µM, first compound 3.16 µM",68.1%
same,"viability, T/C","second compound 0.316 µM, first compound 10 µM",63.8%
same,"viability, T/C","second compound 1 µM, first compound 0.0316 µM",63%
same,"viability, T/C","second compound 1 µM, first compound 0.1 µM",58.6%
same,"viability, T/C","second compound 1 µM, first compound 0.316 µM",62.7%
same,"viability, T/C","second compound 1 µM, first compound 1 µM",63.6%
same,"viability, T/C","second compound 1 µM, first compound 3.16 µM",63.4%
same,"viability, T/C","second compound 1 µM, first compound 10 µM",59%
